Legend:
Veronica hederffolia = assay: Field test, Cameo (tribenuron-methyl) plus adjuvants in winter wheat, growth reduction; type: in vivo; settings: spray 0.015% tribenuron-methyl, 0.1% adjuvant in tank mix or none
Protocol: Field tests were carried out on test plots using a completely randomised block design with 4 replicates. The spray volume used was 300 I.ha^−1.
The spray solution contained 0.015% by weight tribenuronethyl and 0.1% adjuvant added to the tank mix. The effectiveness of the herbicides was assessed visually by the % growth reduction of the weeds as compared with untreated weeds.

Galium aparine [1] = assay: Field test, triasulfuron plus adjuvants against weeds in winter wheat; type: in vivo; settings: triasulfuron 25 g.ha^−1, adjuvant 0.1% by weight or none; visual, percentage of plants affected, 5 weeks after treatment
Protocol: (§1) Field tests were carried out on test plots using a completely randomised block design with 4 replicates. […] In such a situation, it is an important benefit if the herbicide can limit the growth of the weeds (inhibition) e.g. by use of an adjuvant. In this Example, the effect of adjuvants on the activity of triasulfuron against G aparine and V hederifolia growing naturally as weeds in winter wheat was examined. […] G aparine and V hederifolia were used in evaluating herbicidal activity because of their regular distribution. […] The results of the runs using no adjuvant and those for combined adjuvants and herbicide are set out in Table 1 below.

Veronica hederifolia [2] = assay: as above; type: in vivo; settings: triasulfuron 25 g.ha^−1, adjuvant 0.1% by weight or none; visual, percentage of plants affected, 5 weeks after treatment
Protocol: as §1

Veronica hederifolia [3] = settings: background statement, no adjuvant; cited from earlier work
Galium aparine [4] = settings: background statement, no adjuvant; cited from earlier work

Compound | Inhibition (%), growth reduction of the weeds as compared with untreated weeds (Veronica hederffolia) [%] | Chlorosis, Galium aparine (5 weeks) (Galium aparine [1]) [%] | Inhibition, Galium aparine (5 weeks) (Galium aparine [1]) [%] | Necrosis, Galium aparine (5 weeks) (Galium aparine [1]) [%] | Chlorosis, Veronica hederifolia (5 weeks) (Veronica hederifolia [2]) [%] | Inhibition, Veronica hederifolia (5 weeks) (Veronica hederifolia [2]) [%] | Necrosis, Veronica hederifolia (5 weeks) (Veronica hederifolia [2]) [%] | known activity against ivy-leaved speedwell (Veronica hederifolia) (Veronica hederifolia [3]) | known activity against cleavers (Galium aparine) (Galium aparine [4])
nonyl phenol 8-ethoxylate [NP8] | 33 | 30 | 40 | 10 | 40 | 60 | 30 |  | 
COc1nc(C)nc(NC(=O)NS(=O)(=O)c2ccccc2OCCCl)n1 [triasulfuron] |  | 30 | 50 | 10 | 10 | 40 | 10 | limited activity | limited activity

Reference: patent publication US6413908B1, “Agrochemical surfactant compositions” (Imperial Chemical Industries plc, priority 1997, dated 2002)
